Source: publication PMC12207590, “Substrate Specificity of the Organic Cation Transporters MATE1 and MATE2K and Functional Overlap with OCT1 and OCT2” (Journal of Medicinal Chemistry, 2025)
Read-outs that look alike come from different tables or passages of the source.

Key:
MATE2K [1] = target: T1, MATE2K (Homo sapiens, UniProt Q86VL8); assay: Uptake ratio in MATE2K-overexpressing HEK293 cells vs empty vector (2.5 μM, 1 min, HPLC-MS/MS); format: cell-based; details: for MATE2K ratio: fold uptake over empty vector; for MATE2 (uptake ratio): mean ratio of uptake in MATE2K-overexpressing HEK293 cells vs empty vector
MATE1 [2] = target: T2, MATE1 (Homo sapiens, UniProt Q96FL8); assay: Uptake ratio in MATE1-overexpressing HEK293 cells vs empty vector (2.5 μM, 1 min, HPLC-MS/MS); format: cell-based; details: for MATE1 (uptake ratio): mean ratio of uptake in MATE1-overexpressing HEK293 cells vs empty vector
T2 sequence (Q96FL8 1-570): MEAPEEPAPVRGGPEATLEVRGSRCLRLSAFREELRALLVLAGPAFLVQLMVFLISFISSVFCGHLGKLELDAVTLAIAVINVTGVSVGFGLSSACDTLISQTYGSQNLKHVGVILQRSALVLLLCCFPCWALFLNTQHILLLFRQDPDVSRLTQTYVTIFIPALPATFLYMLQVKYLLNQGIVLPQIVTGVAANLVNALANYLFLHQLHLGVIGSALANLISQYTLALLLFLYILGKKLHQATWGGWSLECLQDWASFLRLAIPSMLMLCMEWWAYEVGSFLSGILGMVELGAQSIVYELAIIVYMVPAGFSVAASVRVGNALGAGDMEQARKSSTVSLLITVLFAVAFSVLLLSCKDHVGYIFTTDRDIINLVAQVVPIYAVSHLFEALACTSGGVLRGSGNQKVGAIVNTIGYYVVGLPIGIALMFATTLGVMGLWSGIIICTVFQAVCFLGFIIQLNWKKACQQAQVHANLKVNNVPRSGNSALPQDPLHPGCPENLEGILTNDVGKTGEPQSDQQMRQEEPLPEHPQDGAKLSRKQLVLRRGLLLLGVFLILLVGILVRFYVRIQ

[3] = cited from earlier work
hCMEC [4] = assay: TS DPH hCMEC (Table S2); format: cell-based, human; set-up: scale not given here; details: Table S2
hCMEC [5] = assay: TS MDAI hCMEC (Table S2); format: cell-based, human; set-up: scale not given here; details: Table S2
MATE1 [6] = target: T2, MATE1; assay: Concentration-dependent uptake (Michaelis-Menten) via MATE1 in HEK293 cells; details: for Km: read-out: MATE1 KM
[7] = test system: MATE1, MATE2K, OCT1, OCT2; assay: Substrate specificity and overlap among the four transporters (ratio cutoff 2); format: cell-based, human; details: transport ratio cutoff of 2
MATE2K [8] = target: T1, MATE2K; assay: Concentration-dependent uptake (Michaelis-Menten) via MATE2K in HEK293 cells; details: for Km: read-out: MATE2K KM
[9] = fold uptake over empty vector, 2.5 μM, 1 min
[10] = uptake ratio MATE2K-overexpressing vs empty-vector HEK293 cells, 2.5 μM, 1 min, mean
[11] = uptake ratio MATE1-overexpressing vs empty-vector HEK293 cells, 2.5 μM, 1 min, mean

T1 sequence (Q86VL8 1-566 isoform Q86VL8-3): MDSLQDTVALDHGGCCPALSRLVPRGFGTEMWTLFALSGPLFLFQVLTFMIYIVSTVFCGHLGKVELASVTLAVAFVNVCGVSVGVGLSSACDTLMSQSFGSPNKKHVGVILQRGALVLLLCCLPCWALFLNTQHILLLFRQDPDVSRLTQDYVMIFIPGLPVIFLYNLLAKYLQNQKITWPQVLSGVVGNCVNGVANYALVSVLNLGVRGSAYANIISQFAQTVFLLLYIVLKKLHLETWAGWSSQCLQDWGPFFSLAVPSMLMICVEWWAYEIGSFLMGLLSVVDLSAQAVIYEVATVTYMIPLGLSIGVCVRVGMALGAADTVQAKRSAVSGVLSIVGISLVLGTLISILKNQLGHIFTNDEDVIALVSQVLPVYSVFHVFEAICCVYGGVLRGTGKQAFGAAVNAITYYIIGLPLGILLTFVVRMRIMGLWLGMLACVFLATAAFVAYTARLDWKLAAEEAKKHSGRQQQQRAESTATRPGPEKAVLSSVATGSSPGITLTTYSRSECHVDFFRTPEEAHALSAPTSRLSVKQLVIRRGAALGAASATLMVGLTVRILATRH

SMILES | MATE2K ratio (MATE2K [1]; 2.5 μM, 1 min) | MATE1 ratio (MATE1 [2]; [9]) | eliminated unchanged via the kidneys ([3]; human) | TS DPH hCMEC (hCMEC [4]) | TS MDAI hCMEC (hCMEC [5]) | MATE1 Vmax (MATE1 [6]; HEK293, 1 min, net uptake) | Km (MATE1 [6]; HEK293, 1 min, net uptake) [µM] | Substrate specificity among MATE1, MATE2K, OCT1, OCT2 [7] | MATE2K Vmax (MATE2K [8]; HEK293, 1 min, net uptake) | Km (MATE2K [8]; HEK293, 1 min, net uptake) [µM] | MATE2 (MATE2K [1]; [10]) | MATE1 (MATE1 [2]; [11]) | further results
C=CCN1CCCC1CNC(=O)c1cc2nn[nH]c2cc1OC (centres unmarked) [Alizapride] | 2.64 | 3.68 | more than 70% |  |  |  |  |  |  |  |  |  | MATE2 (uptake ratio) (MATE2K [1]; 2.5 μM, 1 min): 2.64; MATE1 ratio (MATE1 [2]; fold uptake over empty vector, 2.5 μM, 1 min, listed as alizapride): above 2; MATE1 (uptake ratio) (MATE1 [2]; 2.5 μM, 1 min): 3.68
Nc1ccncc1N [Amifampridine] | 7.01 | 17.06 | more than 70% |  |  |  |  |  |  |  |  |  | MATE2 (uptake ratio) (MATE2K [1]; 2.5 μM, 1 min): 7.01; MATE1 ratio (MATE1 [2]; fold uptake over empty vector, 2.5 μM, 1 min, listed as amifampridine): above 2; MATE1 (uptake ratio) (MATE1 [2]; 2.5 μM, 1 min): 17.06
CC(C)NCC(O)COc1ccc(COCCOC(C)C)cc1 (centres unmarked) [Bisoprolol] |  |  | 50% | 0.32 | 0.35 |  |  |  |  |  |  |  | 
CC[N+](C)(C)c1cccc(O)c1 [Edrophonium] | 10.98 | 30.33 |  |  |  |  |  |  |  |  |  |  | MATE1 ratio (MATE1 [2]; fold uptake over empty vector, 2.5 μM, 1 min, listed as edrophonium): above 2; eliminated unchanged via the kidneys ([3]; in vivo): more than 70%
NC(N)=Nc1nc(CSCCC(N)=NS(N)(=O)=O)cs1 [Famotidine] |  |  | more than 70% |  |  |  |  |  |  |  |  |  | 
CN[C@@H]1CCc2[nH]c3ccc(C(N)=O)cc3c2C1 [Frovatriptan] | 31.50 | 34.35 |  | 0.83 | 0.88 | 4568 pmol × mg protein^–1 × min^–1 | 70.4 | All four transporters | 869 pmol × mg protein^–1 × min^–1 | 11.2 |  |  | 
C[C@H]1N=C(N(C)C)N=C(N)N1 [Imeglimin] | 4.59 | 18.76 | more than 70% |  |  | 6242 pmol × mg protein^–1 × min^–1 | 58 |  | 2814 pmol × mg protein^–1 × min^–1 | 81.6 |  |  | MATE2K ratio in this study (MATE2K [1]; Table S1, 2.5 μM, 1 min): 4.59; MATE1 ratio in this study (MATE1 [2]; Table S1, 2.5 μM, 1 min): 18.76; MATE1 ratio (MATE1 [2]; fold uptake over empty vector, 2.5 μM, 1 min, listed as imeglimin): above 2
C[N@+]1(CC2CC2)CC[C@]23c4c5ccc(O)c4O[C@H]2C(=O)CC[C@@]3(O)[C@H]1C5 [Methylnaltrexone] |  |  |  | 1.11 | 0.84 | 55.8 pmol × mg protein^–1 × min^–1 | 17.9 | All four transporters | 41.6 pmol × mg protein^–1 × min^–1 | 86.8 |  |  | 
COc1ccc(OC)c(C(O)CNC(=O)CN)c1 (centres unmarked) [Midodrine] | 1.43 | 4.53 |  | 1.05 | 1.02 |  |  | MATE1 only |  |  |  |  | 
Cc1ncc(CO)c(CN)c1O [Pyridoxamine] | 1.36 | 2.68 |  |  |  | 5442 pmol × mg protein^–1 × min^–1 | 1690 | MATE1 only | 989.5 pmol × mg protein^–1 × min^–1 | 1550 | 1.36 | 2.68 | 
CNC(=C[N+](=O)[O-])NCCSCc1ccc(CN(C)C)o1 [Ranitidine] | 8.62 | 18.91 | more than 70% | 1.26 | 1.24 |  |  |  |  |  | 8.62 | 18.91 | MATE1 ratio (MATE1 [2]; fold uptake over empty vector, 2.5 μM, 1 min, listed as ranitidine): above 2
C#CCN[C@@H]1CCc2ccccc21 [Rasagiline] | 2.16 | 1.18 |  | 0.54 | 0.51 | 194 pmol × mg protein^–1 × min^–1 | 167 | specific for only OCT2 and MATE2K | linear |  | 2.16 | 1.18 | 
N[C@@H](CC(=O)N1CCn2c(nnc2C(F)(F)F)C1)Cc1cc(F)c(F)cc1F [Sitagliptin] | 2.77 | 4.17 | more than 70% |  |  |  |  |  |  |  | 2.77 | 4.17 | MATE1 ratio (MATE1 [2]; fold uptake over empty vector, 2.5 μM, 1 min, listed as sitagliptin): above 2
CC(C)NCC(O)c1ccc(NS(C)(=O)=O)cc1 (centres unmarked) [Sotalol] | 1.62 | 19.70 | more than 70% |  |  |  |  |  |  |  | 1.62 | 19.7 | MATE1 ratio (MATE1 [2]; fold uptake over empty vector, 2.5 μM, 1 min, listed as sotalol): above 2
CCN1CCCC1CNC(=O)c1cc(S(N)(=O)=O)ccc1OC (centres unmarked) [Sulpiride] |  |  |  |  |  |  | 16 |  |  | 22.8 |  |  | MATE1 Vmax (MATE1 [6]): 851 pmol × mg protein^–1 × min^–1; MATE2K Vmax (MATE2K [8]): 1025 pmol × mg protein^–1 × min^–1; eliminated unchanged via the kidneys ([3]; in vivo): more than 70%
Cc1ncc(C[n+]2csc(CCO)c2C)c(N)n1 [Thiamine] |  |  |  |  |  | 599 pmol × mg protein^–1 × min^–1 | 17.2 | All four transporters | 109.2 pmol × mg protein^–1 × min^–1 | 17.3 | 10.63 | 33.42 | MATE2K ratio in this study (MATE2K [1]; Table S1, 2.5 μM, 1 min): 10.63; MATE1 ratio in this study (MATE1 [2]; Table S1, 2.5 μM, 1 min): 33.42
O=C(O[C@H]1C[C@H]2CC[C@@H](C1)[N+]21CCCC1)C(O)(c1ccccc1)c1ccccc1 [Trospium] |  |  | more than 70% |  |  |  |  |  |  |  |  |  | MATE2 (MATE2K [1]): 5.18; MATE2K ratio in this study (MATE2K [1]): 5.18; MATE1 (MATE1 [2]): 21.28; MATE1 ratio (MATE1 [2]): above 2; MATE1 ratio in this study (MATE1 [2]): 21.28
Nc1ccn([C@H]2CC[C@@H](CO)O2)c(=O)n1 [Zalcitabine] |  | above 2 | more than 70% |  |  | 10,171 pmol × mg protein^–1 × min^–1 | 1560 |  | linear |  | 1.22 | 12.98 | MATE2K ratio in this study (MATE2K [1]; Table S1, 2.5 μM, 1 min): 1.22; MATE1 ratio in this study (MATE1 [2]; Table S1, 2.5 μM, 1 min): 12.98
